Counter-ions that a name gives are not always drawn. Like-named read-outs stand apart in the source and are kept apart here.
What was measured:
[1] = Effect of compound on body weight in mice; type: in vivo, C57/BL6 mice; conditions: 25 mg/kg active ingredient, three intraperitoneal injections
Protocol: (§1) Adult (P50) C57/BL6 mice from Charles River were used for the experiments. All animal experiments are performed in accordance with international guidelines for proper conduct of animal experiment under jurisdiction of the Swiss law (Permit number ZH-18/2008). For every mouse in the experiment the well-being during the interventions is documented in a score sheet.
The mice are housed under optimal hygienic conditions (OHB) with controlled air-conditioning and lighting (temperature: 20-24° C., humidity: 55-65%, day/night cycle: 12 h/12 h, lights on 7 a.m.). Individually ventilated cages of type II, L (530 cm^2 floor space) with standard litter are used. A maximum of 6 mice is kept in each cage. Mice are fed with standard rodent chow (Extrudat, KLIBA NAFAG) ad libitum and have free access to drinking water. Animal colony is managed and maintained at BioSupport, Schlieren.
(§2) Example 119, mono-lysine salt, was prepared for the dosing as suspension in 20% DMSO, 80% PBS with a final concentration of 2.5 mg/ml active compound (corresponding to 3.13 mg/ml of the lysine salt). First, compound of Example 119, mono-lysine salt, was dissolved in DMSO at a concentration of 15.7 mg/ml. Then sterile PBS was added to get a final concentration of 3.13 mg/ml and the suspension was thoroughly vortexed. The suspension was kept at room temperature in the dark until used.
(§3) 5 adult mice were treated with 10 ml/kg of a 3.13 mg/ml suspension of Example 119, mono-lysine salt. This corresponds to a dose of 25 mg/kg active ingredient. As vehicle control 5 mice were treated with 10 ml/kg of 20% DMSO in PBS. Each mouse received three intraperitoneal injections. Between dose 1 and dose 2 there were 8 h, between dose 2 and dose 3 16 h. 5 h after the last injection the mice were euthanatized with CO2.
(§4) Before the first injection the mice were weighted and ˜100 μl of blood was collected from the lateral tail vein. Serum was prepared with centrifugation of blood samples in Microvette 500 Z-Gel tubes (10'000 g, 20° C., 5 min). […]

[2] = test system: C-terminal agrin fragment (CAF); test: Analysis of serum CAF levels by western blotting; type: in vivo, C57/BL6 mice
Protocol: as §1, §2, §3
as §4, with “min). Supernatant was transferred to an Eppendorf reaction tube and centrifuged again (21'000 g, 20° C., 5 min). Supernatant was transferred to screw top reaction tubes and the serum was stored at −20° C. until analysis.” for “min).”
After staining for CAF the membrane was washed thoroughly and reused for a staining for endogenous mouse antibodies that served as loading control. […] After imaging with a Stella imaging system (Raytest) the intensity of the CAF bands was measured with AIDA picture analysis software (Raytest) and normalized to the loading levels determined from mouse antibody light chains. […]

Trypsin (hog trypsin) = molecular target: T1, Trypsin (hog trypsin) (Sus scrofa, UniProt P00761); test: Determination of the IC50 for various proteases: trypsin; type: biochemical; conditions: Mean ± SD
T1 construct: Trypsin is hog trypsin (Sigma Aldrich); purchased Sigma Aldrich
Protocol: (§5) A 6 mM solution of the test compound in DMSO was prepared. In a V-bottom micro plate the 6 mM compound solution was diluted 6 times in DMSO to obtain a concentration row with the following concentrations: 6 mM, 1.8 mM, 540 μM, 162 μM, 48.8 μM, 14.4 μM, and 4 μM. From this DMSO master plate 1:20 dilutions in 10 mM MOPS pH 8.3 were prepared to obtain solutions of 300, 90, 27, 8.1, 2.44, 0.72 and 0.22 μM in MOPS buffer and 5% DMSO.
(§6) 100 μl of this solution were pipetted into a flat bottom 96 well microplate and placed into a Tecan infinite 200 plate reader. Before measurement, 50 μl of protease solution and, subsequently 50 μl substrate solution were added by the machine. The liberation of free para nitroanilide was detected at 405 nm. The protease solution was freshly prepared by diluting to the desired concentration from a stock solution in 60 mM MOPS; 600 mM NaCl; 20 mM CaCl2; 10% DMSO; 0.4% PEG 6000 pH 8.3. The substrate solution was prepared by dissolving the solid substrate in an adequate amount of water to get the desired concentrations. The used protease and substrate solutions are given below:
(§7) All enzymes except trypsin were from human origin (American diagnostic). Trypsin is hog trypsin (Sigma Aldrich). Substrates were purchased from Chromogenix. […]

Thrombin = molecular target: T2, Thrombin (Homo sapiens, UniProt P00734); test: Determination of the IC50 for various proteases: thrombin; type: biochemical; conditions: Mean ± SD
T2 construct: Thrombin; purchased American diagnostic
Protocol: as §5, §6, §7

Kallikrein = Kallikrein (Homo sapiens, UniProt P03952); test: Determination of the IC50 for various proteases: kallikrein; type: biochemical; conditions: Mean ± SD
Protocol: as §5, §6, §7

tPA = molecular target: T3, tPA (Homo sapiens, UniProt P00750); test: Determination of the IC50 for various proteases: tPA; type: biochemical; conditions: Mean ± SD
T3 construct: purchased American diagnostic
Protocol: as §5, §6, §7

human neurotrypsin = molecular target: T4, human neurotrypsin (Homo sapiens, UniProt P56730); test: Determination of IC50 for human neurotrypsin; type: biochemical
T4 sequence (P56730 21-875): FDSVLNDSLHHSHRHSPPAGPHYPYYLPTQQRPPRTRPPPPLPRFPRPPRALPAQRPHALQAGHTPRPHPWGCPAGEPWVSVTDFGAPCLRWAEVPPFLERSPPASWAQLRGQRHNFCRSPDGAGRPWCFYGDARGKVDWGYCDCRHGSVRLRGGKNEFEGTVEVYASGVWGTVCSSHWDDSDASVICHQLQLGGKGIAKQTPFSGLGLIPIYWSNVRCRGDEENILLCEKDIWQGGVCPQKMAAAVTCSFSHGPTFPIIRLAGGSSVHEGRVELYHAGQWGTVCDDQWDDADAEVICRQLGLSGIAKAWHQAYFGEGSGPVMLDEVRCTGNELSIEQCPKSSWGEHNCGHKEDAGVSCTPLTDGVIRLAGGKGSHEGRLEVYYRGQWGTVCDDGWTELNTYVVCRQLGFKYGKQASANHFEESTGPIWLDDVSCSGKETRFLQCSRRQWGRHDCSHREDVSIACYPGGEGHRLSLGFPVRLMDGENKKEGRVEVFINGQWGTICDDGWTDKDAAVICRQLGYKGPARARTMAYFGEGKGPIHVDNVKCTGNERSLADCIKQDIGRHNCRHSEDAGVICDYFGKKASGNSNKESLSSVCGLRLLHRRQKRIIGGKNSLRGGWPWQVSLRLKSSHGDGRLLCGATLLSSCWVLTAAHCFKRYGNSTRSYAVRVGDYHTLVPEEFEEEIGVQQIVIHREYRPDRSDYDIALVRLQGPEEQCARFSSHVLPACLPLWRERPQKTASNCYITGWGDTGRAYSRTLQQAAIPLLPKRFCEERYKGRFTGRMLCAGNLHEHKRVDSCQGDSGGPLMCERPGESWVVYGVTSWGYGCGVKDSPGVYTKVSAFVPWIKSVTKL
Protocol: Assessment of the potency of compounds of examples 1-311 in inhibiting the enzymatic activity of human neurotrypsin was performed according to the method described in patent application WO 2006/1103261

uPA = molecular target: T5, uPA (Homo sapiens, UniProt P00749); test: Determination of the IC50 for various proteases: uPA; type: biochemical; conditions: Mean ± SD
T5 construct: purchased American diagnostic
Protocol: as §5, §6, §7

Plasmin = molecular target: T6, Plasmin (Homo sapiens, UniProt P00747); test: Determination of the IC50 for various proteases: plasmin; type: biochemical; conditions: Mean ± SD
T6 construct: Plasmin; purchased American diagnostic
Protocol: as §5, §6, §7

Factor Xa = molecular target: T7, Factor Xa (Homo sapiens, UniProt P00742); test: Determination of the IC50 for various proteases: Factor Xa; type: biochemical; conditions: Mean ± SD
T7 construct: Factor Xa; purchased American diagnostic
Protocol: as §5, §6, §7

[3] = human neurotrypsin, method of WO 2006/1103261, read-out: Neurotrypsin IC50

T7 sequence (P00742 235-488 limits assumed): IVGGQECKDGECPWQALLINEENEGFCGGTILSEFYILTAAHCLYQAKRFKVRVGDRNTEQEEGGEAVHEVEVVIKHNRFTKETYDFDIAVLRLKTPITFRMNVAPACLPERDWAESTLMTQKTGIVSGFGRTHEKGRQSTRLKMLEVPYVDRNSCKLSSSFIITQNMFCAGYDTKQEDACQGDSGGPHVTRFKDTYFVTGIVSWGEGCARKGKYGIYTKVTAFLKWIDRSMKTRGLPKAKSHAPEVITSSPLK
T7 sequence (P00742 41-179 partner limits assumed): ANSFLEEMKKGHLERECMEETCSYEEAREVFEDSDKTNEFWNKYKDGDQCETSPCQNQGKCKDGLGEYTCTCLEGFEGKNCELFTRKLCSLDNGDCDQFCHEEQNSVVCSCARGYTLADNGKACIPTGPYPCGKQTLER
T6 sequence (P00747 581-810 limits assumed): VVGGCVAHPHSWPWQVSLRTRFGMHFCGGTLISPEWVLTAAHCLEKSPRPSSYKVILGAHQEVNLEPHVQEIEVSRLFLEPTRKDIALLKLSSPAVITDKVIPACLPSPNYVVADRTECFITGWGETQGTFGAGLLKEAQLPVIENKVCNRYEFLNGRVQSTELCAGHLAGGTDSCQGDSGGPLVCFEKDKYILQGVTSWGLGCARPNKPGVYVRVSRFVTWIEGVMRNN
T6 sequence (P00747 97-580 partner limits assumed): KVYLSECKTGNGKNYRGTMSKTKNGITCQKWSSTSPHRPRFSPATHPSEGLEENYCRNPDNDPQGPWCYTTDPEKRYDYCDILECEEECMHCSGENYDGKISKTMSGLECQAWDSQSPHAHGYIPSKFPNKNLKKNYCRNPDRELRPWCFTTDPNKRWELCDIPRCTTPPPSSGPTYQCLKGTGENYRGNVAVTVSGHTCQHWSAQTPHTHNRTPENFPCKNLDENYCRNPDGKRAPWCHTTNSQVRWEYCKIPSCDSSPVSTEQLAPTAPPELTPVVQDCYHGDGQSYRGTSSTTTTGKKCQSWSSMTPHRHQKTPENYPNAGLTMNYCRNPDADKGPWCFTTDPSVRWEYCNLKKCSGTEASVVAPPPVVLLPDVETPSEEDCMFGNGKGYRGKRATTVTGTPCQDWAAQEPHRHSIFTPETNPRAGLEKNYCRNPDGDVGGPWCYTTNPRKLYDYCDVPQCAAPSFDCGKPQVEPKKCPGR
Sequence of Kallikrein (P03952 whole entry): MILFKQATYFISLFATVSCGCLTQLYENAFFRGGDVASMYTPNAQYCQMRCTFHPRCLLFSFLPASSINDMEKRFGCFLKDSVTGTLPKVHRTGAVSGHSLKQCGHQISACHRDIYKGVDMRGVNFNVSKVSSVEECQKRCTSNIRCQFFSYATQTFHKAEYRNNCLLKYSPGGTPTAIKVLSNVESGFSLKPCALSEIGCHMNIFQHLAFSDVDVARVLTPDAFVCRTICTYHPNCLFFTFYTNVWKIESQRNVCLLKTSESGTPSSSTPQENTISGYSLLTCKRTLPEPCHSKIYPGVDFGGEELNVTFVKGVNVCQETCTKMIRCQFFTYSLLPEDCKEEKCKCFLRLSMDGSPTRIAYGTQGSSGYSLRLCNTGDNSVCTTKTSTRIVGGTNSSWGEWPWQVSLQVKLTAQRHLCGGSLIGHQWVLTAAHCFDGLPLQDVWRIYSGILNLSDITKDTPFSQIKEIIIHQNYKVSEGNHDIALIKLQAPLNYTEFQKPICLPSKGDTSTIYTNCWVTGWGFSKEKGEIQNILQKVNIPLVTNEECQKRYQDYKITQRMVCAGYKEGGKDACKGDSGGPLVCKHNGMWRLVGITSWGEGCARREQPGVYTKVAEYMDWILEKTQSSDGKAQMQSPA
T1 sequence (P00761 9-231): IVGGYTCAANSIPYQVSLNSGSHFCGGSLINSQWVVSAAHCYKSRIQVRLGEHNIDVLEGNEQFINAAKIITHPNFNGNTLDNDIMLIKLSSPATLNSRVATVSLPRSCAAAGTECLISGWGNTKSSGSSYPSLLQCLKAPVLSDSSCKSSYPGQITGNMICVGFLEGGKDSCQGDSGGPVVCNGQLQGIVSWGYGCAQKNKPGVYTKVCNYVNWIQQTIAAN
T3 sequence (P00750 36-562): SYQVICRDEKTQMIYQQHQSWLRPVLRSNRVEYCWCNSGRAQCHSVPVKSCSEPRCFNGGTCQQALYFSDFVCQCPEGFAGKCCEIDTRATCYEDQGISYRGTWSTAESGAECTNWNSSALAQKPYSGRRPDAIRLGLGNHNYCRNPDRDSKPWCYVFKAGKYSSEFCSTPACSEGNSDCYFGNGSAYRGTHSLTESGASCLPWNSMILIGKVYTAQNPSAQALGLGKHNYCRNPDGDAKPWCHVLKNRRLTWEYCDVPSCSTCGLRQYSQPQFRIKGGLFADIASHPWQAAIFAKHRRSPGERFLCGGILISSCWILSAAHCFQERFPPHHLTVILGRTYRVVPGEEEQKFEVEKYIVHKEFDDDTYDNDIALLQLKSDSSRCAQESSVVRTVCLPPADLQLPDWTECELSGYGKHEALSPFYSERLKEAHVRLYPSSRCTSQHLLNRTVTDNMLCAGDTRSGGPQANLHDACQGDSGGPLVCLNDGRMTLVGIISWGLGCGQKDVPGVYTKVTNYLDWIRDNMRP

O=C(Nc1ccc(Cl)cc1)c1ccc(NC(=O)c2ccc(-c3nc4cc(Cl)c(Cl)cc4[nH]3)cc2)c(C(=O)O)c1 [Example 119, mono-lysine salt]
increase in weight loss compared to the vehicle control ([1]; adult mice): does not produce any increase in weight loss compared to the vehicle control
Weight loss ([1]; adult mice, post-treatment/pre-treatment weight): < 10%
Average weight loss (% of T = 0 weigth) ([1]; mice, weighed before first injection and 5 h after last, n=5): 5.52 % of T = 0 weigth
CAF levels Average (AU) ([2]; pooled mouse serum, western blot, post-treatment, 25 mg/kg i.p. x3, normalized to loading control, KO background subtracted): 0.38 AU
CAF levels Average (% of vehicle) ([2]; pooled mouse serum, western blot, post-treatment, 25 mg/kg i.p. x3, normalized to the vehicle level): 56.15 % of vehicle
CAF levels ([2]; serum, pooled samples, mice, 25 mg/kg active ingredient, three intraperitoneal injections, 5 h after last injection, mean ± standard deviation): 56.2%±29.0 % of vehicle control

O=C(Nc1ccc(Cl)cc1)c1ccc(NC(=O)c2ccc(-c3nc4cc(Cl)c(Cl)cc4[nH]3)cc2)c(C(=O)O)c1 [Example 119]
IC50 (Trypsin (hog trypsin)): > 150 µM
IC50 (Thrombin): 37.7 ± 25.2 µM
IC50 (Kallikrein): 27.1 ± 9.2 µM
IC50 (tPA): 47.1 ± 22.4 µM
IC50 (human neurotrypsin; Mean ± SD, read-out: IC50 Neurotrypsin): 0.51 ± 0.16 µM
IC50 (human neurotrypsin; [3]): 0.4 µM
IC50 (uPA): > 40 µM
IC50 (Plasmin): 2.4 ± 1.6 µM
IC50 (Factor Xa): 39.8 ± 33.3 µM

O=C(O)c1ccc(Nc2ccc(Cl)cc2)cc1NC(=O)c1sc2ccccc2c1Cl [Example 288, 2-(3-Chlorobenzo[b]thiophene-2-carboxamido)-4-(4-chlorophenyl-amino)benzoic acid]
IC50 (human neurotrypsin; [3]): 5.1 µM

CC(Nc1ccc(C(=O)O)c(NC(=O)c2sc3ccccc3c2Cl)c1)c1ccc(Cl)cc1 (stereo not drawn) [Example 290]
IC50 (human neurotrypsin; [3]): 4.1 µM

O=C(O)c1ccc(NC2CCCc3ccccc32)cc1NC(=O)c1sc2ccccc2c1Cl (stereo not drawn) [Example 291]
IC50 (human neurotrypsin; [3]): 4 µM

O=C(Nc1ccc(Sc2ccc(Cl)cc2)cc1C(=O)O)c1ccc(-c2ccc(Cl)cc2)s1 [Example 293]
IC50 (human neurotrypsin; [3]): 8.7 µM

O=C(O)c1ccc(CN2CC(c3ccc(Cl)cc3)OC2=O)cc1NC(=O)c1sc2ccccc2c1Cl (stereo not drawn) [Example 301]
IC50 (human neurotrypsin; [3]): 8.7 µM

O=C(O)COc1cc(C(=O)O)c(NC(=O)c2ccc(-c3nc4cc(Cl)c(Cl)cc4n3CC(=O)O)cc2)cc1C(=O)Nc1ccc(Cl)cc1 [Example 302, 5-(Carboxymethoxy)-2-(4-(1-(carboxymethyl)-5,6-dichloro-1H-benzo[d]imidazol-2-yl)benzamido)-4-(4-chlorophenylcarbamoyl)benzoic acid]
IC50 (human neurotrypsin; [3]): 4.4 µM

O=C(Nc1ccc(Cl)cc1)c1cc(NC(=O)c2sc3ccccc3c2Cl)c(C(=O)O)cc1O [Example 303]
IC50 (human neurotrypsin; [3]): 5.5 µM

O=C(O)COc1cc(C(=O)O)c(NC(=O)c2sc3ccccc3c2Cl)cc1C(=O)Nc1ccc(Cl)cc1 [Example 304]
IC50 (human neurotrypsin; [3]): 2.5 µM

COC(=O)c1cc(OCC(=O)O)c(C(=O)Nc2ccc(Cl)cc2)cc1NC(=O)c1ccc(-c2nc3cc(Cl)c(Cl)cc3n2C)cc1 [Example 305]
IC50 (human neurotrypsin; [3]): 1.2 µM

Cn1c(-c2ccc(C(=O)Nc3cc(C(=O)Nc4ccc(Cl)cc4)c(OCC(=O)O)cc3C(=O)O)cc2)nc2cc(Cl)c(Cl)cc21 [Example 306]
IC50 (human neurotrypsin; [3]): 0.5 µM

O=C(COc1ccc(NC(=O)c2ccc(-c3nc4cc(Cl)c(Cl)cc4[nH]3)cc2)c(C(=O)O)c1)Nc1ccc(Cl)cc1 [Example 311, 5-(4-Chlorophenylcarbamoylmethoxy)-2-(4-(5,6-dichloro-1H-benzo[d]imidazol-2-yl)benzamido)benzoic acid]
IC50 (human neurotrypsin; [3]): 0.5 µM

N-(5-(5-Chloro-1,3-thiazol-2-ylcarbamoyl)-2-(2H-tetrazol-5-yl)phenyl)-5-phenyl-thiophene-2-carboxamide [Example 228]
IC50 (human neurotrypsin; [3]): 6.6 µM

Reference: patent US20130261130A1, “NEUROTRYPSIN INHIBITORS” (priority 2010, published 2013)
